Reference: ChEMBL document CHEMBL3046418, “Synthesis and Herbicidal Activity of Sulfonylurea Compounds with Imidazo [1, 2-a] pyridine Moiety” (2001)

Key:
Format in all cases: functional
Avena fatua [1] = experiment: Herbicidal activity against Avena fatua after 4 weeks by pre-emergence greenhouse test; parameters: concentration or dose not given beside the values
Matricaria chamomilla [2] = experiment: Herbicidal activity against Matricaria chamomilla after 3 weeks by post-emergence greenhouse test; parameters: concentration or dose not given beside the values
Triticum aestivum [3] = experiment: Phytotoxic activity against Triticum aestivum (wheat) after 3 weeks by post-emergence greenhouse test; parameters: concentration or dose not given beside the values
Avena fatua [4] = experiment: Herbicidal activity against Avena fatua after 3 weeks by post-emergence greenhouse test; parameters: concentration or dose not given beside the values
Stellaria media [5] = experiment: Herbicidal activity against Stellaria media after 3 weeks by post-emergence greenhouse test; parameters: concentration or dose not given beside the values
Alopecurus myosuroides [6] = experiment: Herbicidal activity against Alopecurus myosuroides after 3 weeks by post-emergence greenhouse test; parameters: concentration or dose not given beside the values
Matricaria chamomilla [7] = experiment: Herbicidal activity against Matricaria chamomilla after 4 weeks by pre-emergence greenhouse test; parameters: concentration or dose not given beside the values
Triticum aestivum [8] = experiment: Phytotoxic activity against Triticum aestivum (wheat) after 4 weeks by pre-emergence greenhouse test
Chenopodium album [9] = experiment: Herbicidal activity against Chenopodium album after 3 weeks by post-emergence greenhouse test; parameters: concentration or dose not given beside the values
Bromus tectorum [10] = experiment: Herbicidal activity against Bromus tectorum after 3 weeks by post-emergence greenhouse test; parameters: concentration or dose not given beside the values
Stellaria media [11] = experiment: Herbicidal activity against Stellaria media after 4 weeks by pre-emergence greenhouse test; parameters: concentration or dose not given beside the values
Mutarda arvensis [12] = experiment: Herbicidal activity against Sinapis arvensis after 3 weeks by post-emergence greenhouse test; parameters: concentration or dose not given beside the values
Alopecurus myosuroides [13] = experiment: Herbicidal activity against Alopecurus myosuroides after 4 weeks by pre-emergence greenhouse test; parameters: concentration or dose not given beside the values
Chenopodium album [14] = experiment: Herbicidal activity against Chenopodium album after 4 weeks by pre-emergence greenhouse test; parameters: concentration or dose not given beside the values
Bromus tectorum [15] = experiment: Herbicidal activity against Bromus tectorum after 4 weeks by pre-emergence greenhouse test; parameters: concentration or dose not given beside the values
Mutarda arvensis [16] = experiment: Herbicidal activity against Sinapis arvensis after 4 weeks by pre-emergence greenhouse test; parameters: concentration or dose not given beside the values

SMILES	Activity (Avena fatua [1]) [%]	Activity (Matricaria chamomilla [2]) [%]	Activity (Triticum aestivum [3]) [%]	Activity (Avena fatua [4]) [%]	Activity (Stellaria media [5]) [%]	Activity (Alopecurus myosuroides [6]) [%]	Activity (Matricaria chamomilla [7]) [%]	Phytotoxicity (Triticum aestivum [8]) [%]	Activity (Chenopodium album [9]) [%]	Activity (Bromus tectorum [10]) [%]	Activity (Stellaria media [11]) [%]	Activity (Mutarda arvensis [12]) [%]	Activity (Alopecurus myosuroides [13]) [%]	Activity (Chenopodium album [14]) [%]	Activity (Bromus tectorum [15]) [%]	Activity (Mutarda arvensis [16]) [%]
CCS(=O)(=O)c1nc2ccccn2c1S(=O)(=O)NC(=O)Nc1nc(C)cc(C)n1	0	1	1	51	1	51	1	0	51	51	0	76	0	1	1	51
CCCS(=O)(=O)c1nc2ccccn2c1S(=O)(=O)NC(=O)Nc1nc(OC)cc(OC)n1	0	51	0	1	76	76	88	0	0	51	76	76	76	0	1	51
COc1cc(OC)nc(NC(=O)NS(=O)(=O)c2c(S(C)(=O)=O)nc3ccccn23)n1	1	88	1	1	76	76	88	0	1	76	51	88	76	1	76	100
COc1cc(OC)nc(NC(=O)NS(=O)(=O)c2c([S+]([O-])C(C)C)nc3ccccn23)n1 (stereo unspecified)	0	1	0	0	1	1	1	0	1	1	0	1	0	0	0	1
COc1cc(OC)nc(NC(=O)NS(=O)(=O)c2c([S+]([O-])c3ccccc3)nc3ccccn23)n1 (stereo unspecified)	0	1	0	0	1	1	1	0	0	1	0	51	0	0	0	1
COc1cc(OC)nc(NC(=O)NS(=O)(=O)c2c(S(=O)(=O)c3ccccc3)nc3ccccn23)n1	0	1	0	0	1	0	1	0	0	0	0	51	0	0	0	1
COc1cc(OC)nc(NC(=O)NS(=O)(=O)c2c(SC)nc3ccccn23)n1	0	76	0	0	1	1	88	0	0	1	51	88	1	51	0	1
CCSc1nc2ccccn2c1S(=O)(=O)NC(=O)Nc1nc(OC)cc(OC)n1	0	51	0	1	1	51	88	0	1	1	0	76	51	1	0	51
CCS(=O)(=O)c1nc2ccccn2c1S(=O)(=O)NC(=O)Nc1nc(Cl)cc(OC)n1	0	1	0	1	1	51	51	0	1	51	1	100	1	0	1	76
CCCSc1nc2ccccn2c1S(=O)(=O)NC(=O)Nc1nc(OC)cc(OC)n1	0	0	0	0	1	1	88	0	0	1	0	51	1	0	0	1
COc1cc(OC)nc(NC(=O)NS(=O)(=O)c2c(SC(C)C)nc3ccccn23)n1	0	51	0	0	1	1	88	0	1	1	0	51	0	1	0	1
COc1cc(OC)nc(NC(=O)NS(=O)(=O)c2c(S(=O)(=O)C(C)C)nc3ccccn23)n1	1	51	0	1	76	88	88	0	1	51	51	51	88	76	51	88
COc1cc(OC)nc(NC(=O)NS(=O)(=O)c2c([S+](C)[O-])nc3ccccn23)n1 (stereo unspecified)	0	76	0	0	0	0	51	0	0	1	0	76	0	0	0	51
CC[S+]([O-])c1nc2ccccn2c1S(=O)(=O)NC(=O)Nc1nc(OC)cc(OC)n1 (stereo unspecified)	0	76	0	0	1	1	88	0	1	51	1	51	1	1	0	1
CCC[S+]([O-])c1nc2ccccn2c1S(=O)(=O)NC(=O)Nc1nc(OC)cc(OC)n1 (stereo unspecified)	0	1	0	0	51	1	76	0	1	1	0	51	0	0	0	1
COc1cc(OC)nc(NC(=O)NS(=O)(=O)c2c(Sc3ccccc3)nc3ccccn23)n1	0	1	1	0	1	0	51	0	0	0	0	51	0	0	0	1
